26 molecules from patent US8735584B2 (Merck Patent GmbH, priority 2008, dated 2014) can be followed below.

The assay deals with T1, GST-Aurora A (Homo sapiens, UniProt O14965).
T1 construct: N-terminal GST fusion with full length Aurora A (1-403 amino acids); purchased Carna Biosciences 05-101
T1 sequence (O14965 1-403): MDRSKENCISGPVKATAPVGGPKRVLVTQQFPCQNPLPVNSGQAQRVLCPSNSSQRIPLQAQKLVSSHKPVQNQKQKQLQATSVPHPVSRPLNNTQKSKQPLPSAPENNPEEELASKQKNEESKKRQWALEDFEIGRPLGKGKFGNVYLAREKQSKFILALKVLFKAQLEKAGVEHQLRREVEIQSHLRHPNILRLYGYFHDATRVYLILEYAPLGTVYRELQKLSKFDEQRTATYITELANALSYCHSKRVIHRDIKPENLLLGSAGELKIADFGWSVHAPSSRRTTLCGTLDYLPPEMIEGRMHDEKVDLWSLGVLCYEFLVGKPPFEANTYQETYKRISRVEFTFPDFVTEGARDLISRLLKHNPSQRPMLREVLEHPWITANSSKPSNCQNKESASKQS
Put plainly: Aurora A IC50, Caliper LC3000 mobility shift assay. To be noted: LC3000 method; 15 uM ATP (the KM value); read-out: Aurora Kinase A Activity (IC50). Type of assay: biochemical. As for the experimental part: The Aurora assays described here are performed on two Caliper Life Sciences systems: the LC3000 and the Desktop Profiler. These provide data on enzyme activity via measurement of the relative amounts of phosphorylated or unphosphorylated fluorescently labelled substrate peptide at the end of an enzymatic reaction. These different states of peptide are resolved by applying a potential difference across the sample. The presence of the charged phosphate group on the product (as opposed to the substrate) causes a different peptide mobility between the two peptides. This is visualized by excitation of the fluorescent label on the substrate and product peptides and represented as peaks within the analysis software.
In order to measure inhibitor activity of Aurora A inhibitors in the Caliper Life Sciences LC3000, a TTP Mosquito liquid handling instrument is used to place 0.25 ul of the appropriate concentration of inhibitor in 100% DMSO (for a dose response curve calculation) into each well of a 384-well plate. To this reaction components are added to a final volume of 25 ul: • 0.067 ng/ul GST-Aurora A (Carna Biosciences 05-101. N-terminal GST fusion with full length Aurora A (1-403 amino acids), accession number NP 940835.1). • 15 uM ATP (Fluke, 02055) • 1 mM DTT (Sigma, D0632) • 1 mM MgCl2 (Sigma, M1028) • 1 uM substrate peptide (sequence FITC-LRRASLG-(CONH2), synthesized by Tufts Peptide Synthesis service. • 100 mM HEPES pH 7.5 (Calbiochem, 391338) • 0.015% Brij-35 (Sigma, B4184)
The reaction is incubated for 90 min at 25 C, and then stopped by the addition of 70 ul of Stop buffer (100 mM HEPES pH 7.5, 0.015% Brij-35, 10 mM EDTA (Sigma, E7889)).
The plate is read on a Caliper LC3000 in an Off-Chip mobility shift assay format, using the following parameters for a 12-sipper chip: screening pressure—1.8 psi, upstream voltage—2700, downstream voltage—1000. These conditions cause unphosphorylated substrate and phosphorylated product peptide to resolve as separate peaks allowing direct measurement of percentage of conversion of substrate to product. The percent conversion can be plotted against concentration of inhibitor to produce a sigmoidal dose response curve, from which an 1050 can be calculated using XLFit for Microsoft Excel.
In the desired wells of a 384-well plate, Aurora A (0.067 ng/ul) was incubated with 15 uM ATP (the KM value), 1 mM DTT, 1 mM MgCl2, and 1 uM peptide substrate (sequence FITC-LRRASLG-(CONH2), FITC=fluorescein isothiocyanate) in 100 mM HEPES pH 7.5 and 0.015% Brij-35 buffer. The reaction was incubated for 90 min at 25 C, and then stopped by the addition of 45 ul of Stop buffer (100 mM HEPES ph 7.5, 0.015% Brij-35, 10 mM EDTA).
The plate was read in a Caliper LC 3000 in an Off-Chip mobility shift assay format, using the following parameters: screening pressure—1.8 psi, upstream voltage—2700, downstream voltage—1000. These conditions cause unphosphorylated substrate peptide to resolve as a peak before that of the phosphorylated peptide product.
In the following table “+” means >100 nM, “++” means 11-100 nM, and “+++” means <11 nM.
Consider `NCc1ccc2c(=O)[nH]c3nccc(Nc4ccc(NC(=O)c5ccccc5)cc4)c3c2c1` [Compound 280, N-(4-(9-(Aminomethyl)-6-oxo-5,6-dihydrobenzo[c][1,8]naphthyridin-1-ylamino)phenyl)benzamide], for which the IC50 was less than 11 nM.
`O=C(Nc1ccc(Nc2ccnc3[nH]c(=O)c4ccccc4c23)cc1)C1(C(F)(F)F)CCCCC1` [Compound 499, N-(4-(6-Oxo-5,6-dihydrobenzo[c][1,8]naphthyridin-1-ylamino)phenyl)-1-(trifluoromethyl)cyclohexanecarboxamide]: the IC50 lay within 11 to 100 nM.
Turning to `O=C(Nc1ccc(Nc2ccnc3[nH]c(=O)c4ccccc4c23)cc1)c1ccc(F)cc1F` [Compound 391, 2,4-Difluoro-N-[4-(6-oxo-5,6-dihydro-benzo[c][1,8]naphthyridin-1-ylamino)-phenyl]-benzamide], the IC50 was less than 11 nM.
Take `O=C(c1ccccc1)N1CC(Nc2ccnc3[nH]c(=O)c4ccccc4c23)C1` [Compound 366, 1-(1-Benzoylazetidin-3-ylamino)benzo[c][1,8]naphthyridin-6(5H)-one]: the IC50 was more than 100 nM.
Take `COc1cccc(F)c1C(=O)Nc1ccc(Nc2ccnc3[nH]c(=O)c4ccccc4c23)cc1` [Compound 504, 2-Fluoro-6-methoxy-N-(4-(6-oxo-5,6-dihydrobenzo[c][1,8]naphthyridin-1-ylamino)phenyl)benzamide]: the IC50 was less than 11 nM.
Regarding `O=C1CCCN1CCCNc1ccc2c(=O)[nH]c3ncccc3c2c1` [Compound 479, 9-(3-(2-Oxopyrrolidin-1-yl)propylamino)benzo[c][1,8]naphthyridin-6(5H)-one], the IC50 was more than 100 nM.
Take `CC(NC(=O)CN1CCC(Nc2ccnc3[nH]c(=O)c4ccccc4c23)CC1)c1ccccc1` (centres unmarked) [Compound 288, 2-(4-(6-Oxo-5,6-dihydrobenzo[c][1,8]naphthyridin-1-ylamino)piperidin-1-yl)-N-(1-phenylethyl)acetamide]: the IC50 is more than 100 nM.
Consider `O=C(Nc1ccc(Nc2ccnc3[nH]c(=O)c4ccccc4c23)cc1)c1ccc(Cl)c(Cl)c1` [Compound 398, 3,4-Dichloro-N-[4-(6-oxo-5,6-dihydro-benzo[c][1,8]naphthyridin-1-ylamino)-phenyl]-benzamide], for which the IC50 was less than 11 nM.
Consider `O=C(Nc1ccc(Nc2ccnc3[nH]c(=O)c4c(O)cccc4c23)cc1)c1ccccc1` [Compound 446, N-[4-(7-Hydroxy-6-oxo-5,6-dihydro-benzo[c][1,8]naphthyridin-1-ylamino)-phenyl]-benzamide], for which the IC50 lay within 11 to 100 nM.
With `CN1CCCC1CCNc1ccc2c(=O)[nH]c3ncccc3c2c1` (centres unmarked) [Compound 475, 9-(2-(1-Methylpyrrolidin-2-yl)ethylamino)benzo[c][1,8]naphthyridin-6(5H)-one], the IC50 was more than 100 nM.
On to `CCN(CCO)Cc1ccc2c(c1)c(=O)[nH]c1nccc(Nc3ccc(NC(=O)c4ccccc4)cc3)c12` [Compound 274, N-(4-(8-((Ethyl(2-hydroxyethyl)amino)methyl)-6-oxo-5,6-dihydrobenzo[c][1,8]naphthyridin-1-ylamino)phenyl)benzamide], for which the half-inhibitory concentration (IC50) lay within 11 to 100 nM.
Take `CN(C(=O)CN1CCC(Nc2ccnc3[nH]c(=O)c4ccccc4c23)CC1)c1ccccc1` [Compound 377, N-Methyl-2-(4-(6-oxo-5,6-dihydrobenzo[c][1,8]naphthyridin-1-ylamino)piperidin-1-yl)-N-phenylacetamide]: the concentration for half-maximal inhibition (IC50) was more than 100 nM.
On to `O=C(Nc1ccc(Nc2ccnc3[nH]c(=O)c4ccccc4c23)cc1)c1ccc(Cl)cc1Cl` [Compound 399, 2,4-Dichloro-N-[4-(6-oxo-5,6-dihydro-benzo[c][1,8]naphthyridin-1-ylamino)-phenyl]-benzamide], for which the IC50 was less than 11 nM.
On to `O=C(Nc1ccc(Nc2ccnc3[nH]c(=O)c4ccccc4c23)cc1)c1cccc(F)c1` [Compound 381, 3-Fluoro-N-[4-(6-oxo-5,6-dihydro-benzo[c][1,8]naphthyridin-1-ylamino)-phenyl]-benzamide], for which the IC50 was less than 11 nM.
With `O=C(Nc1ccc(Nc2ccnc3[nH]c(=O)c4ccccc4c23)cc1)c1cccc(F)c1F` [Compound 432, 2,3-Difluoro-N-[4-(6-oxo-5,6-dihydro-benzo[c][1,8]naphthyridin-1-ylamino)-phenyl]-benzamide], the IC50 is less than 11 nM.
For the molecule `CN1CCN(Cc2ccc3c(=O)[nH]c4nccc(Nc5ccc(NC(=O)c6ccccc6)cc5)c4c3c2)CC1` [Compound 291, N-(4-(9-((4-methylpiperazin-1-yl)methyl)-6-oxo-5,6-dihydrobenzo[c][1,8]naphthyridin-1-ylamino)phenyl)benzamide], the IC50 is less than 11 nM.
Regarding `CN(C)CCNC(=O)c1cccc2c1c(=O)[nH]c1nccc(Nc3ccc(NC(=O)c4ccc(F)cc4C(F)(F)F)cc3)c12` [Compound 440, 1-[4-(4-Fluoro-2-trifluoromethyl-benzoylamino)-phenylamino)-6-oxo-5,6-dihydro-benzo[c][1,8]naphthyridin-7-carboxylic acid 2-dimethylamino-ethyl amide], the IC50 was less than 11 nM.
For the molecule `O=C(Cn1cc(Nc2ccnc3[nH]c(=O)c4ccccc4c23)cn1)Nc1ccc(C(F)(F)F)cc1` [Compound 431], the IC50 was more than 100 nM.
Take `COc1cc2c(=O)[nH]c3nccc(Nc4ccc(Cl)cc4)c3c2cc1OC` [Example 213, 1-(4-Chloro-phenylamino)-8,9-dimethoxy-5H-benzo[c][1,8]naphthyridin-6-one]: the IC50 is 11 to 100 nM.
With `O=C(Nc1ccc(Nc2ccnc3[nH]c(=O)c4ccc(F)cc4c23)cc1)c1ccc(F)cc1C(F)(F)F` [Compound 413, 4-Fluoro-N-[4-(9-fluoro-6-oxo-5,6-dihydro-benzo[c][1,8]naphthyridin-1-ylamino)-phenyl]-2-trifluoromethyl-benzamide], the IC50 was less than 11 nM.
Then `COc1cc2c(=O)[nH]c3nccc(Nc4ccc(NC(=O)c5ccccc5)cc4)c3c2cc1OC` [Compound 409, N-[4-(8,9-Dimethoxy-6-oxo-5,6-dihydro-benzo[c][1,8]naphthyridin-1-ylamino)-phenyl]-benzamide], with less than 11 nM.
Then `O=C(Nc1ccc(Nc2ccnc3[nH]c(=O)c4ccccc4c23)cc1)C1CC1` [Compound 351, N-(4-(6-Oxo-5,6-dihydrobenzo[c][1,8]naphthyridin-1-ylamino)phenyl)cyclopropanecarboxamide], with 11 to 100 nM; and `COc1cccc(C#Cc2ccnc3[nH]c(=O)c4ccccc4c23)c1` [Example 160, 1-(3-Methoxy-phenylethynyl)-5H-benzo[c][1,8]naphthyridin-6-one], with more than 100 nM.
As for `O=c1[nH]c2ncccc2c2cc(NCc3c(F)cccc3C(F)(F)F)ccc12` [Compound 461, 9-(2-Fluoro-6-(trifluoromethyl)benzylamino)benzo[c][1,8]naphthyridin-6(5H)-one], the IC50 is more than 100 nM.
`Cc1cccc(CNc2ccc3c(=O)[nH]c4ncccc4c3c2)c1` [Example 47, 9-(3-Methyl-benzylamino)-5H-benzo[c][1,8]naphthyridin-6-one]: the IC50 is more than 100 nM.
The figure for `O=C(Nc1ccc(Nc2ccnc3[nH]c(=O)c4ccc(Cl)cc4c23)cc1)c1ccccc1` [Compound 293, N-(4-(9-Chloro-6-oxo-5,6-dihydrobenzo[c][1,8]naphthyridin-1-ylamino)phenyl)benzamide] is less than 11 nM.

As usually defined, the IC50 is the point on the concentration scale where inhibition reaches its midpoint.
